Legend:
[1] = molecular target: recombinant 5-HT2C receptor (human) (Homo sapiens (Human), UniProt P28335); test: 5-HT2C competition binding assay ([125I]-DOI, SPA)
Protocol: [^125I]-(±)DOI binding experiments are carried out in SPA 96-well format. Membranes used in this assay are prepared from AV-12 cells stably expressing recombinant 5-HT2C receptor (human). The incubation is initiated by the addition of a mixture of WGA PVT SPA beads (0.5 mg/well, Perkin Elmer (MA, USA), RPNQ0001) and 2.5 μg membranes to assay buffer (50 mM Tris-HCl, 10 mM MgCl2, 0.5 mM EDTA, 10 μM pargyline, 0.1% ascorbic acid, pH7.4) containing 0.2 nM [[^125I]-(±)DOI and varying concentrations of the test compound (10 point concentration response curves). Non-specific binding is determined in the presence of 20 μM 1-(1-Naphthyl) piperazine. Samples are incubated for 4 hr. at room temperature (22° C.) and then read in a Microbeta Trilux.
Curves are evaluated using a 4-parameter logistic nonlinear equation to obtain the concentration of competitor causing 50% inhibition of radioligand binding (IC50). Equilibrium dissociation constants (Ki) are calculated according to the equation Ki=IC50/(1+L/Kd), where L equals the concentration of radioligand used in the experiment and Kd equals the equilibrium dissociation constant of the radioligand for the receptor, determined from standard saturation analysis or homologous competition experiments. […]

[2] = molecular target: Dopamine D3 (Homo sapiens (Human), UniProt P35462); test: Dopamine D3 binding
Description: (§1) Further, the compounds of the invention may be tested in binding assays and functional activity assays by well known methods for other physiologically important receptors such as, but not limited to, the hERG channel, other serotonin receptors (specifically 5-HT1B, 5-HT1D, receptors, lack of agonist activity at 5-HT2B receptors, 5-HT2C, 5-HT5, 5-HT6, and 5-HT7 receptors), dopaminergic receptors (specifically D1, D2, and D3), GABAA receptors, adrenergic receptors and monoamine transporters.

[3] = molecular target: recombinant 5-HT2A receptor (human) (Homo sapiens (Human), UniProt P28223); test: 5-HT2A competition binding assay ([3H]-Ketanserin, SPA)
Protocol: [^3H]-Ketanserin binding experiments are carried out in SPA 96-well format. Membranes used in this assay are prepared from AV-12 cells stably expressing recombinant 5-HT2A receptor (human). The incubation is initiated by the addition of a mixture of WGA YSi SPA beads (1 mg/well, Perkin Elmer (MA, USA), RPNQ0011) and 2 μg membranes to assay buffer (67 mM Tris, 0.5 mM EDTA; pH 7.6) containing 3.1 nM [^3H]-Ketanserin and varying concentrations of the test compound (10 point concentration response curves). Non-specific binding is determined in the presence of 20 μM 1-(1-Naphthyl) piperazine. Samples are incubated for 4 hr. at room temperature (22° C.) and then read in a Microbeta Trilux.

[4] = Plasma clearance in rat (intravenous); assay type: in vivo; conditions: male, Sprague Dawley, rat, plasma, iv, 1 mg/kg, read-out: Clearance
Protocol: Male Sprague Dawley rats (body weight range 250-320 g) with indwelling femoral arterial cannulae are obtained from Charles River, Wilmington, Mass. 01887, USA. Test compound is administered intravenously in solution (1 mL/kg) in 20% Captisol® in 22.5 mM phosphate buffer, pH 2, at a final drug concentration of 1.0 mg/mL (free base equivalents). Blood samples are obtained using the indwelling cannula over 24 hr. Samples of plasma are obtained by centrifugation and stored frozen (−20° C.), or on dry ice, prior to analysis.
Frozen plasma samples are thawed to room temperature for bioanalysis of concentrations of test compound. A related internal standard compound in acetonitrile/methanol (1:1, v/v) is added to all samples of plasma (1:1, v/v). The samples are centrifuged to remove precipitated protein prior to analysis. The supernatants are analysed by injection and rapid gradient elution on a Javelin Betasil C18 column (20×2.1 mm cartridge, Mobile phase A: Water/1 M NH4HCO3, 2000:10 v/v, Mobile Phase B: MeOH/1 M NH4HCO3, 2000:10 v/v). The eluted analytes are detected by LC-MS-MS analysis using a Sciex API 4000 triple quadrupole mass spectrometer. Concentrations of compound are determined from standards prepared and analysed under identical conditions. Clearance is calculated using non-compartmental analysis in Watson 7.4, Thermo Fisher Scientific, Inc.

[5] = molecular target: Dopamine D2 (Homo sapiens (Human), UniProt P14416); test: Dopamine D2 binding
Description: as §1

[6] = molecular target: human recombinant H1 receptor (Homo sapiens (Human), UniProt P35367); test: H1 competition binding assay ([3H]-Pyrilamine, SPA)
Protocol: [^3H]-Pyrilamine binding experiments are carried out in SPA (scintillation proximity assay) 96-well format. Membranes used in this assay are prepared from HEK-293 cells stably expressing recombinant H1 receptor (human). The incubation is initiated by the addition of a mixture of WGA PVT SPA beads (1 mg/well, Perkin Elmer (MA, USA) RPNQ0001) and 3 μg membranes to assay buffer (67 mM Tris; pH 7.6) containing 3.5 nM [^3H]-Pyrilamine and varying concentrations of the test compound (10 point concentration response curves). Non-specific binding is determined in the presence of 10 μM Triprolidine. Samples are incubated for 4 hr. at room temperature (22° C.) and then read in a Microbeta Trilux.
Curves are evaluated using a 4-parameter logistic nonlinear equation to obtain the concentration of competitor causing 50% inhibition of radioligand binding (IC50). Equilibrium dissociation constants (Ki) are calculated according to the equation Ki=IC50/(1+L/Kd), where L equals the concentration of radioligand used in the experiment and Kd equals the equilibrium dissociation constant of the radioligand for the receptor, determined from standard saturation analysis or homologous competition experiments. Reported values for Ki, where n values are indicated, are shown as geometric mean±the standard error of the mean (SEM), with the number of replicate determinations indicated by n. […]

human recombinant H1 receptor, sequence (P35367 whole entry): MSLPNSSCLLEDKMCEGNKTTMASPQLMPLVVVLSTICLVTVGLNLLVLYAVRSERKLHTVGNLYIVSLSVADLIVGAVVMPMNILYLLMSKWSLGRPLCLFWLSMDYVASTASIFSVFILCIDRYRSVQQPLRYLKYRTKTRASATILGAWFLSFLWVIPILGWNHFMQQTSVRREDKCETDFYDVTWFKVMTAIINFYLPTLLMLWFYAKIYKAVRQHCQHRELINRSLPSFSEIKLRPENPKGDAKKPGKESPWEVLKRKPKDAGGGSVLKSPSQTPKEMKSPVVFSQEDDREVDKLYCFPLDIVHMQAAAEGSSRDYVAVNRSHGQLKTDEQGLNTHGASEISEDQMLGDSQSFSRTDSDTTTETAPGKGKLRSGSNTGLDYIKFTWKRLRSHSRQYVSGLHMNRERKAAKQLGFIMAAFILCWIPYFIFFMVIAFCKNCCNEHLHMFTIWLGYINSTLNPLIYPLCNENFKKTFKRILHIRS
recombinant 5-HT2C receptor (human), sequence (P28335 whole entry, looked up): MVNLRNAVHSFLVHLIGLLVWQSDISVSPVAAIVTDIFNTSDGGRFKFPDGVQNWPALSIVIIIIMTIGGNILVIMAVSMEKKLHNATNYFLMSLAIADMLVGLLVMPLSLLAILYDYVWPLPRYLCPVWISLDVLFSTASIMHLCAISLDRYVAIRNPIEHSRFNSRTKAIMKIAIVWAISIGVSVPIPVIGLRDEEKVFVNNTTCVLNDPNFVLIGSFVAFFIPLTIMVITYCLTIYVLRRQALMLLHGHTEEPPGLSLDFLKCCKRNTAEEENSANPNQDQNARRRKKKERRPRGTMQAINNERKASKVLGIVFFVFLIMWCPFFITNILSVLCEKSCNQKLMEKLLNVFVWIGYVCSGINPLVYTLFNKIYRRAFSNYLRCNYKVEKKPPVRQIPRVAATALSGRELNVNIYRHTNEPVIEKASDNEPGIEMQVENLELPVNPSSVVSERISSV
Dopamine D3, sequence (P35462 whole entry): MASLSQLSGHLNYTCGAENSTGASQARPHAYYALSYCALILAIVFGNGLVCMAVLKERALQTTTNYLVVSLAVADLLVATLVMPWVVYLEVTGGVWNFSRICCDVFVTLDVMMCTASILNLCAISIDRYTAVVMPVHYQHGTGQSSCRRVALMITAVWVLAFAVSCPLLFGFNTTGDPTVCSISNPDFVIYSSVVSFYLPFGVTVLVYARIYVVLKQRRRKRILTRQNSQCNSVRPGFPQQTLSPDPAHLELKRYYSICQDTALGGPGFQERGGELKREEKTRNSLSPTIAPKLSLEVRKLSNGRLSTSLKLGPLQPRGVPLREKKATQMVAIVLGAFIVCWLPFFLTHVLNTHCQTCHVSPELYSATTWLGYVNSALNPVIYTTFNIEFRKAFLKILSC
Dopamine D2, sequence (P14416 whole entry): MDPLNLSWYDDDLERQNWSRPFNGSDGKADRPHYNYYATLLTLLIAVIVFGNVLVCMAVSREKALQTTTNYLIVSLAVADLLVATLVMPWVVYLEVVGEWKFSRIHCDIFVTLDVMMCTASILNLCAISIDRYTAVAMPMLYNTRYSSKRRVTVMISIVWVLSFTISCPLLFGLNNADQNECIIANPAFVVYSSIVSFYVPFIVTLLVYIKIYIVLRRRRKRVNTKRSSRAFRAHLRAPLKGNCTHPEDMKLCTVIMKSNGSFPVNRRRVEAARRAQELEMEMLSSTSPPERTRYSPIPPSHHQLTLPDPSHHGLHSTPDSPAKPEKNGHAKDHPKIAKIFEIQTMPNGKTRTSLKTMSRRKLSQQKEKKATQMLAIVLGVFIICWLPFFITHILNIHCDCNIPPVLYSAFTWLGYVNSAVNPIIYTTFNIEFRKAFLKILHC

Cc1ccc2c(c1)Oc1sc(Cl)cc1C(N1CCN(CC(C)(C)C(=O)O)CC1)=N2 [Example 1, 3-[4-(2-Chloro-8-methyl-thieno[2,3-b][1,5]benzoxazepin-4-yl)piperazin-1-yl]-2,2-dimethyl-propanoic acid]
Ki [1]: 0.137 µM | Ki [2]: > 5.51 µM | Ki [3]: 0.00337 µM | clearance [4]: 14.1 mL/min/kg | Ki [5]: 2.78 µM | Ki [6]: 0.0206 µM

— US9481688B2, “(Thieno[2,3-b][1,5]benzoxazepin-4-yl)piperazin-1-yl compounds as dual activity H1 inverse agonists/5-HT2A antagonists” (Eli Lilly and Company, priority 2011, dated 2016)
